Measurements taken from US20100169994A1, “ANIMAL MODEL” (priority 2007, published 2010).
Entries after “also recorded” stand apart in the source; their conditions may differ.

Columns and labels:
NK1−/− and NK1+/+ mice [1] = assay: Light/dark exploration box (LDEB), locomotor activity after methylphenidate; type: in vivo; conditions: methylphenidate 2.5 mg/kg i.p.
Description: (§1) Experiments were carried out on male NK1−/− (‘knock-out’) and NK1+/+ (wild-type) mice, weighing 25-35 g (i.e. about 6-7 weeks of age). Mice were derived from a 129/Sv×C57BL/6 genetic background that had been crossed with an outbred MF1 strain (Harlan OLAC, Bicester, UK). All mice were taken from a colony maintained at University College London.
All experiments tested the behaviour of (formerly) treatment-naïve mice in the LDEB and were carried out between 13:00 h and 15:00 h. Each LDEB consisted of a small ‘dark zone’ (length, 15 cm; width, 20 cm; 174 lux) and a larger ‘light zone’ (length, 30 cm; width 20 cm; 346 lux). The walls and floor of the ‘dark zone’ were coloured black. The walls and floor of the ‘light zone’ were coloured white. […]
30 min later, the mice were transferred to the centre of the novel light zone, facing away from the guillotine style door. […] Their behaviour was recorded with a Sony Handycam Vision video recorder for 30 min. The number of lines crossed by all four paws of the mouse (an index of locomotor activity) was scored ‘blind’, in 10-min time-bins. […]
The data were analysed by two-way ANOVA using ‘genotype’ and ‘treatment as main factors. […] Data are expressed as means±s.e.mean and […] was set as the criterion for significance.

NK1−/− and NK1+/+ mice [2] = assay: Light/dark exploration box (LDEB), locomotor activity after d-AMP with or without NK1 antagonist pretreatment; type: in vivo; conditions: for behaviour (locomotor activity, response to d-AMP) of NK1+/+ mice given a NK1 antagonist ('pseudo knockout'): RP 67580 5 or 10 mg/kg i.p. or L 733060 5 mg/kg; for locomotor activity (number of lines crossed): d-AMP 2.5 mg/kg i.p.
Description: as §1, with “NK1+/+(wild-type)” for “NK1+/+ (wild-type)”
All experiments tested the behaviour of (formerly) treatment-naïve mice in the LDEB and were carried out between 13:00 h and 15:00 h. Each LDEB consisted of a small ‘dark zone’ (length, 15 cm; width, 20 cm; 174 lux) and a larger ‘light zone’ (length 30 cm; width, 20 cm; 346 lux). The walls and floor of the ‘dark zone’ were coloured black. The walls and floor of the ‘light zone’ were coloured white. The floor of both zones was marked as a grid of 5×5 cm squares (12 in the dark zone, 24 in the light zone) which was used to score locomotor activity. The partition separating the two zones incorporated a small (white) guillotine-style door (height 10.5 cm, width 7.5 cm), which could be raised to allow animals to commute between the two compartments. Mice were tested in pairs in two LDEBs, placed side by side. At 13:00 h, each mouse was placed in the dark zone of a LDEB, with the partition door closed. After 30 min in the dark zone, mice of each genotype were randomly assigned to one of six treatment groups (n=3˜4) and given an injection (10 mL/kg; i.p) of either vehicle (one drop of Tween 80 in saline to appropriate volume) or the NK1 antagonist, RP 67580 (5 or 10 mg/kg). The same subjects were given a second injection or either saline or d-amphetamine (2.5 mg/kg, i.p), 30 min later.
At 14:30 h, each mouse was transferred to the centre of the novel light zone, facing away from the guillotine style door. The door was immediately lifted to allow the animals to commute freely between the two compartments. Their behaviour was recorded with a Sony Handycam Vision video recorder for 30 min. The number of lines crossed by all four paws of the mouse (as an index of locomotor activity) was scored ‘blind’, in 5-min time-bins.
In a second experiment, this protocol was repeated, substituting the NK1 antagonist, L 733060 (5 mg/kg) in place of RP 67580. All other details (including Tween vehicle) were the same.
RP 67580 was administered at 5 or 10 mg/kg; dissolved in a drop of Tween 80 and adjusted to the appropriate concentration by adding 0.9% saline. […]
The data were analysed by three-way (experiment testing RP 67580) or two-way (for […]) ANOVA using ‘genotype’, ‘drug’ and ‘dose’ (if appropriate) as main factors. […] Data are expressed as means±s.e.mean and P≦0.05 was set as the criterion for significance.

[3] = test system: NK1−/− and wild-type mice; conditions: wild-type versus NK1−/− mice; FIG. 13
Description: The effect of betaxolol and desipramine was tested using similar protocols to those used for testing the effect of d-amphetamine.

NK1−/− and NK1+/+ mice [4] = assay: Light/dark exploration box, locomotor activity after desipramine; type: in vivo; conditions: desipramine 10 mg/kg i.p., FIG. 3
Description: Experiments were carried out on male NK1−/− (‘knock-out’) and NK1+/+(wild-type) mice, weighing 25-31 g (i.e. about 6-7 weeks of age). Mice were derived from a 129/Sv×C57BL/6 genetic background that had been crossed with an outbred MF1 strain (Harlan OLAC, Bicester, UK). All mice were taken from a colony maintained at University College London. All experiments were performed in treatment-naïve mice, between 13:00 h and 17:00 h. Behavioural tests were carried out in a custom-built light/dark exploration box (LDEB) (length 45 cm; width 20 cm; depth 25 cm). The test box consisted of a small ‘dark zone’ (length 15 cm; 4 lux) and a larger ‘light zone’ (length 30 cm; 20 lux). The walls and floor of the ‘dark zone’ were coloured black. […] The behaviour of the mouse was recorded on video for the following 30 min. The following behaviours were later scored ‘blind’, in 10 min time-bins: i) latency to leave the light zone following forced entry (anxiety-like behaviour or impulsivity?) ii) latency to first return to the light zone following the first exit (the appearance of all four paws was the criterion for re-entry) (impulsivity) iii) number of returns to the light zone (impulsivity) iv) number of lines crossed by all four paws of the mouse (as an index of locomotor activity) Data were analysed by two-way analysis of variance (ANOVA) using ‘genotype’ and ‘treatment’ as main factors. […]

NK1R−/− and NK1R+/+ mice = assay: Activity meter (locomotor activity chamber), ambulatory activity; type: in vivo; conditions: FIG. 2
Description: Behavioural tests were carried out in a standard locomotor activity chamber comprising a custom-made transparent perspex box (length 30 cm; width 19 cm; depth 18 cm). The box was placed in the centre of an activity meter (410×410 mm, Columbia Instruments, USA) which was equipped with parallel infrared beams spanning the chamber. Ambulatory activity was scored whenever the mouse interrupted two adjacent beams. Light intensity within the chamber was 82 lux. All experiments were performed in drug-naive mice, between 14:00 h and 18:30 h. […] The apparatus was cleaned thoroughly with water after each experiment.

NK1−/− and NK1+/+ mice [5] = assay: Microdialysis of extracellular dopamine in frontal cortex/striatum after d-amphetamine; type: in vivo; conditions: d-amphetamine 5 mg/kg i.p.
Description: as §1
Microdialysis probes were constructed in-house and equipped with cuprophan membrane (inner diameter 200 μm, outer diameter 250 μm, molecular weight cut-off 5 kD; Medicell International Ltd., England) forming an active dialysis window of 3.5 mm. Anaesthesia was induced in a closed chamber delivering 2.0% halothane combined with 95% O2/5% CO2 at 2 L/min. The mice were then placed in a stereotaxic frame and anaesthesia maintained, via a face mask, with 1.5% halothane in 95% O2/5% CO2 (2 L/min).
A small incision was made in the scalp to expose the skull and reveal bregma. […] Vital signs were monitored continually to ensure a respiratory rate of 100-190/min (average: 135±20/min). […]
The dopamine content of the dialysis samples was determined by HPLC coupled to electrochemical detection. […] Dopamine was detected using a Coulochem TI detector (ESA) and the mobile phase was conditioned by a guard cell (ESA model 5020). The […] content of the samples was calculated from the peak height of the chromatogram with reference to an external standard. […]

SMILES: COC(=O)C(c1ccccc1)C1CCCCN1 (stereo not drawn) [methylphenidate]
- locomotor activity (number of lines crossed) (NK1−/− and NK1+/+ mice [1]; NK1+/+ mice): increased locomotor activity
- locomotor activity (number of lines crossed) (NK1−/− and NK1+/+ mice [1]; NK1−/− mice): reduced activity

SMILES: COc1ccccc1CC(=N)N1C[C@@H]2C(=O)CCC(c3ccccc3)(c3ccccc3)[C@@H]2C1 [RP 67580]
- behaviour (locomotor activity, response to d-AMP) of NK1+/+ mice given a NK1 antagonist ('pseudo knockout') (NK1−/− and NK1+/+ mice [2]; NK1+/+ mice): Mimics that of Nk1−/− Mice

SMILES: CC(C)NCC(O)COc1ccc(CCOCC2CC2)cc1 (stereo not drawn) [betaxolol]
- locomotor activity [3]: not all drugs that increase locomotor activity in wild-type mice reduce it in NK1^−/− mice

SMILES: FC(F)(F)c1cc(CO[C@H]2CCCN[C@H]2c2ccccc2)cc(C(F)(F)F)c1 [L733060]
- behaviour (locomotor activity, response to d-AMP) of NK1+/+ mice given a NK1 antagonist ('pseudo knockout') (NK1−/− and NK1+/+ mice [2]; NK1+/+ mice): Mimics that of Nk1−/− Mice

SMILES: CNCCCN1c2ccccc2CCc2ccccc21 [desipramine]
- hyperactivity (locomotor activity) in a light/dark exploration box (NK1−/− and NK1+/+ mice [4]): reduction
- locomotor activity in an activity chamber (NK1R−/− and NK1R+/+ mice; NK1R+/+ mice): not NK1R+/+ mice
- locomotor activity in an activity chamber (NK1R−/− and NK1R+/+ mice; NK1R−/− mice): reduces locomotor activity

SMILES: C[C@H](N)Cc1ccccc1 [d-AMP, d-amphetamine]
- extracellular dopamine in the frontal cortex/striatum (NK1−/− and NK1+/+ mice [5]; NK1+/+ mice): increased
- extracellular dopamine in the frontal cortex/striatum (NK1−/− and NK1+/+ mice [5]; NK1−/− mice): no d-AMP induced increase; also recorded: not NK1−/− mice
- locomotor activity (number of lines crossed) (NK1−/− and NK1+/+ mice [2]; NK1+/+ mice): increased
- locomotor activity (number of lines crossed) (NK1−/− and NK1+/+ mice [2]; NK1−/− mice): reduced
